Assay results reported in US10952433B2, “Solutions for enhancing the effectiveness of insecticides and fungicides on living plants and related methods” (priority 2015, dated 2021).
Where two headings read alike, the source gives them in different places.

Columns and labels:
[1] = test system: lepidopteran larvae: cabbage loopers (Trichoplusia ni) and beet armyworms (Spodoptera exigua); format: in vivo; details: plants
In short: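 Romaine lettuce plants 2-3 inches tall were sprayed with 10 mL of insecticide (ppm) with buffer, amine oxide or buffered amine oxide at 200:1, then infested with 15 T. ni and 15 S. exigua larvae (5th-6th instar) per container. Leaf surface damage scored visually in 5% increments after 24 h.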

[2] = test system: lepidopteran larvae: cabbage loopers (Trichoplusia ni) and beet armyworms (Spodoptera exigua); format: in vivo; details: leaf discs
In short: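 Romaine lettuce leaf discs (⅝ inch) dipped about one second in treatment solution and infested with four cabbage loopers and four beet armyworms (3rd-4th instar) per container. Held dark at 15 °C, 80% RH; percent disc-area damage scored visually in 5% increments at 24, 48 and 72 h.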

[3] = insecticide + CO3 buffer 200:1, no amine oxide, PPM: Chlorantranilopril 60, Acephate 70, Methoxyfenozide 100, Spinosad 30, Permethrin 10, Indoxacarb 50
[4] = insecticide + PO4 buffer 200:1, no amine oxide, PPM: Chlorantranilopril 60, Acephate 70, Methoxyfenozide 100, Spinosad 30, Permethrin 10, Indoxacarb 50
[5] = insecticide + amine oxide 12, no buffer, 200:1, PPM: Chlorantranilopril 60, Acephate 70, Methoxyfenozide 100, Spinosad 30, Permethrin 10, Indoxacarb 50
[6] = insecticide + amine oxide 1218, no buffer, 200:1, PPM: Chlorantranilopril 60, Acephate 70, Methoxyfenozide 100, Spinosad 30, Permethrin 10, Indoxacarb 50
[7] = insecticide + buffered amine oxide system CO3, 12, 200:1, PPM: Chlorantranilopril 60, Acephate 70, Methoxyfenozide 100, Spinosad 30, Permethrin 10, Indoxacarb 50
[8] = insecticide + buffered amine oxide system CO3, 1218, 200:1, PPM: Chlorantranilopril 60, Acephate 70, Methoxyfenozide 100, Spinosad 30, Permethrin 10, Indoxacarb 50
[9] = insecticide + buffered amine oxide system PO4, 12, 200:1, PPM: Chlorantranilopril 60, Acephate 70, Methoxyfenozide 100, Spinosad 30, Permethrin 10, Indoxacarb 50
[10] = insecticide + buffered amine oxide system PO4, 1218, 200:1, PPM: Chlorantranilopril 60, Acephate 70, Methoxyfenozide 100, Spinosad 30, Permethrin 10, Indoxacarb 50
[11] = insecticide alone, highest, PPM: Chlorantranilopril 120, Acephate 140, Methoxyfenozide 200, Spinosad 60, Permethrin 20, Indoxacarb 100
[12] = insecticide alone, increased, PPM: Chlorantranilopril 90, Acephate 105, Methoxyfenozide 150, Spinosad 45, Permethrin 15, Indoxacarb 75
[13] = insecticide alone, PPM: Chlorantranilopril 60, Acephate 70, Methoxyfenozide 100, Spinosad 30, Permethrin 10, Indoxacarb 50

## COc1cccc(C(=O)NN(C(=O)c2cc(C)cc(C)c2)C(C)(C)C)c1C [Methoxyfenozide]
[1]; [3]
  Percent Lepidopteran Damage to Romaine Lettuce 24 hr: 13.5%
[1]; [4]
  Percent Lepidopteran Damage to Romaine Lettuce 24 hr: 22.0%
[1]; [5]
  Percent Lepidopteran Damage to Romaine Lettuce 24 hr: 28.0%
[1]; [6]
  Percent Lepidopteran Damage to Romaine Lettuce 24 hr: 13.0%
[1]; [7]
  Percent Lepidopteran Damage to Romaine Lettuce 24 hr: 8.0%
[1]; [8]
  Percent Lepidopteran Damage to Romaine Lettuce 24 hr: 9.0%
[1]; [9]
  Percent Lepidopteran Damage to Romaine Lettuce 24 hr: 7.5%
[1]; [10]
  Percent Lepidopteran Damage to Romaine Lettuce 24 hr: 4.5%
[1]; [11]
  Percent Lepidopteran Damage to Romaine Lettuce 24 hr: 23.5%
[1]; [12]
  Percent Lepidopteran Damage to Romaine Lettuce 24 hr: 43.0%
[1]; [13]
  Percent Lepidopteran Damage to Romaine Lettuce 24 hr: 29.5%
[2]; [3]
  Percent Lepidopteran Damage to Romaine Lettuce 24 hr: 96.0%
  Percent Lepidopteran Damage to Romaine Lettuce 48 hr: 99.5%
  Percent Lepidopteran Damage to Romaine Lettuce 72 hr: 100.0%
[2]; [4]
  Percent Lepidopteran Damage to Romaine Lettuce 24 hr: 100.0%
  Percent Lepidopteran Damage to Romaine Lettuce 48 hr: 100.0%
  Percent Lepidopteran Damage to Romaine Lettuce 72 hr: 100.0%
[2]; [5]
  Percent Lepidopteran Damage to Romaine Lettuce 24 hr: 79.5%
  Percent Lepidopteran Damage to Romaine Lettuce 48 hr: 82.5%
  Percent Lepidopteran Damage to Romaine Lettuce 72 hr: 87.0%
[2]; [6]
  Percent Lepidopteran Damage to Romaine Lettuce 24 hr: 72.0%
  Percent Lepidopteran Damage to Romaine Lettuce 48 hr: 80.5%
  Percent Lepidopteran Damage to Romaine Lettuce 72 hr: 87.5%
[2]; [7]
  Percent Lepidopteran Damage to Romaine Lettuce 24 hr: 42.5%
  Percent Lepidopteran Damage to Romaine Lettuce 48 hr: 51.5%
  Percent Lepidopteran Damage to Romaine Lettuce 72 hr: 57.0%
[2]; [8]
  Percent Lepidopteran Damage to Romaine Lettuce 24 hr: 43.0%
  Percent Lepidopteran Damage to Romaine Lettuce 48 hr: 67.0%
  Percent Lepidopteran Damage to Romaine Lettuce 72 hr: 73.5%
[2]; [9]
  Percent Lepidopteran Damage to Romaine Lettuce 24 hr: 54.5%
  Percent Lepidopteran Damage to Romaine Lettuce 48 hr: 67.5%
  Percent Lepidopteran Damage to Romaine Lettuce 72 hr: 73.0%
[2]; [10]
  Percent Lepidopteran Damage to Romaine Lettuce 24 hr: 85.0%
  Percent Lepidopteran Damage to Romaine Lettuce 48 hr: 87.0%
  Percent Lepidopteran Damage to Romaine Lettuce 72 hr: 88.0%
[2]; [11]
  Percent Lepidopteran Damage to Romaine Lettuce 24 hr: 100.0%
  Percent Lepidopteran Damage to Romaine Lettuce 48 hr: 100.0%
  Percent Lepidopteran Damage to Romaine Lettuce 72 hr: 100.0%
[2]; [12]
  Percent Lepidopteran Damage to Romaine Lettuce 24 hr: 100.0%
  Percent Lepidopteran Damage to Romaine Lettuce 48 hr: 100.0%
  Percent Lepidopteran Damage to Romaine Lettuce 72 hr: 100.0%
[2]; [13]
  Percent Lepidopteran Damage to Romaine Lettuce 24 hr: 84.0%
  Percent Lepidopteran Damage to Romaine Lettuce 48 hr: 94.0%
  Percent Lepidopteran Damage to Romaine Lettuce 72 hr: 96.0%
